19 compounds from patent publication US20230071840A1, “HETEROCYCLIC GLP-1 AGONISTS” (Gasherbrum Bio, Inc., priority 2020, published 2023) can be followed below.

For the first test, the target named is GLP-1 Receptor (Homo sapiens, UniProt P43220). Kind of test: GLP-1R agonist cAMP stimulation assay (HEK293/GLP1R/CRE-LUC cells, cAMP dynamic 2 kit). The format is cell-based. The settings on record: HEK293/CRE-Luc cell line stably expressing the GLP-1 Receptor; 30 min incubation at 37° C.; read-out: GLP1R cAMP Stimulation DR: EC50. Put shortly: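 HEK293/CRE-Luc cells stably expressing human GLP-1R stimulated 30 min at 37 °C, 5% CO2. cAMP detected with HTRF cAMP-d2/anti-cAMP cryptate reagents after 1 h at room temperature; % activity normalised between vehicle and maximal control.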
GLP-1 Receptor, sequence (P43220 24-463, species assumed): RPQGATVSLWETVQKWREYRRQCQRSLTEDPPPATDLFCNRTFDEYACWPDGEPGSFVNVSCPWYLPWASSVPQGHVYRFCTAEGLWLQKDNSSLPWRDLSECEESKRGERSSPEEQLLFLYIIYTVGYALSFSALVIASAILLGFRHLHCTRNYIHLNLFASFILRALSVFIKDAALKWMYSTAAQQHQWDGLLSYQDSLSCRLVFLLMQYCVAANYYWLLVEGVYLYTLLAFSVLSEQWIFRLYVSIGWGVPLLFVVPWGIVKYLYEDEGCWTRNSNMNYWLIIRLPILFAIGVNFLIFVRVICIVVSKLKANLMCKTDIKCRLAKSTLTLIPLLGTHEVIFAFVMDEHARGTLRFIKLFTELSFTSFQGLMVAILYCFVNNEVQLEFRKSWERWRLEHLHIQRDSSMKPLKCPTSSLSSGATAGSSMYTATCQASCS
For the compound `O=C(O)c1ccc2nc(CN3CCC(Oc4nn(Cc5ccc(Cl)cc5F)cc4Cl)CC3)n(C[C@@H]3CCO3)c2n1` [Compound 183a, 2-{[4-({4-chloro-1-[(4-chloro-2-fluorophenyl)methyl]-1H-pyrazol-3-yl}oxy)piperidin-1-yl]methyl}-3-{[(2S)-oxetan-2-yl]methyl}-3H-imidazo[4,5-b]pyridine-5-carboxylic acid], the EC50 came to 0.85 nM. Take `O=C(O)c1ccc2nc(CN3CCC(Oc4cnn(Cc5ccc(Cl)cc5F)c4)CC3)n(C[C@@H]3CCO3)c2n1` [Compound 184a, 2-{[4-({1-[(4-chloro-2-fluorophenyl)methyl]-1H-pyrazol-4-yl}oxy)piperidin-1-yl]methyl}-3-{[(2S)-oxetan-2-yl]methyl}-3H-imidazo[4,5-b]pyridine-5-carboxylic acid]: the EC50 came to 90 nM.

With `O=C(O)c1ccc2nc(CN3CCC(n4ncc5ccc(Cc6ccc(Cl)cc6F)nc54)CC3)n(C[C@@H]3CCO3)c2n1` [Compound 185a, 2-[(4-{6-[(4-chloro-2-fluorophenyl)methyl]-1H-pyrazolo[3,4-b]pyridin-1-yl}piperidin-1-yl)methyl]-3-{[(2S)-oxetan-2-yl]methyl}-3H-imidazo[4,5-b]pyridine-5-carboxylic acid], the EC50 was found to be 0.47 nM. For the compound `O=C(O)c1ccc2nc(Cc3ccc(Oc4ccnc(Cc5ccc(Cl)cc5)n4)cc3)n(C[C@@H]3CCO3)c2n1` [Compound 186a, 2-{[4-({2-[(4-chlorophenyl)methyl]pyrimidin-4-yl}oxy)phenyl]methyl}-3-{[(2S)-oxetan-2-yl]methyl}-3H-imidazo[4,5-b]pyridine-5-carboxylic acid], the EC50 is 0.6 nM. On to `O=C(O)c1ccc2nc(Cc3ccc(Oc4ccnc(Cc5ccc(Cl)cc5)n4)cc3)n(C[C@@H]3CCO3)c2c1` [Compound 187a, 2-{[4-({2-[(4-chlorophenyl)methyl]pyrimidin-4-yl}oxy)phenyl]methyl}-1-{[(2S)-oxetan-2-yl]methyl}-1H-1,3-benzodiazole-6-carboxylic acid], for which the EC50 stood at 1.3 nM. Still for that read-out and setting: with `O=C(O)c1ccc2nc(C[C@H]3CC[C@H](Oc4nc(Cc5ccc(Cl)cc5)ncc4F)CC3)n(C[C@@H]3CCO3)c2n1` [Compound 188a, 3-{[(2S)-oxetan-2-yl]methyl}-2-{[trans-4-({2-[(4-chlorophenyl)methyl]-5-fluoropyrimidin-4-yl}oxy)cyclohexyl]methyl}-3H-imidazo[4,5-b]pyridine-5-carboxylic acid] the figure was 0.045 nM; with `O=C(O)c1ccc2nc(Cc3ccc(Oc4nc(Cc5ccc(Cl)cc5)ncc4F)cc3)n(C[C@@H]3CCO3)c2n1` [Compound 189a, 2-{[4-({2-[(4-chlorophenyl)methyl]-5-fluoropyrimidin-4-yl}oxy)phenyl]methyl}-3-{[(2S)-oxetan-2-yl]methyl}-3H-imidazo[4,5-b]pyridine-5-carboxylic acid], 0.69 nM. Same read-out and setting: in the case of `O=C(O)c1ccc2nc(Cc3ccc(Oc4nc(Cc5ccc(Cl)cc5)ncc4F)cc3F)n(C[C@@H]3CCO3)c2n1` [Compound 190a, 2-{[4-({2-[(4-chlorophenyl)methyl]-5-fluoropyrimidin-4-yl}oxy)-2-fluorophenyl]methyl}-3-{[(2S)-oxetan-2-yl]methyl}-3H-imidazo[4,5-b]pyridine-5-carboxylic acid] it was 0.41 nM.

Consider `O=C(O)c1ccc2nc(Cc3ccc(Oc4nc(Cc5ccc(Cl)cc5)ncc4F)cc3F)n(C[C@@H]3CCO3)c2c1` [Compound 191a, 2-{[4-({2-[(4-chlorophenyl)methyl]-5-fluoropyrimidin-4-yl}oxy)-2-fluorophenyl]methyl}-1-{[(2S)-oxetan-2-yl]methyl}-1H-1,3-benzodiazole-6-carboxylic acid], for which the EC50 was 0.29 nM. Still for that read-out and setting: with `O=C(O)c1ccc2nc(CN3CC=C(c4cnc5ccc(Cc6ccc(Cl)cc6F)nn45)CC3)n(C[C@@H]3CCO3)c2n1` [Compound 192a, 2-[(4-{6-[(4-chloro-2-fluorophenyl)methyl]imidazo[1,2-b]pyridazin-3-yl}-1,2,3,6-tetrahydropyridin-1-yl)methyl]-3-{[(2S)-oxetan-2-yl]methyl}-3H-imidazo[4,5-b]pyridine-5-carboxylic acid] the figure was 130 nM; with `O=C(O)c1ccc2nc(CN3CCC(Oc4ccnc(Cc5ccc(Cl)cc5)n4)CC3)n(Cc3cn[nH]c3)c2n1` [Compound 193, 3-((1H-pyrazol-4-yl)methyl)-2-((4-((2-(4-chlorobenzyl)pyrimidin-4-yl)oxy)piperidin-1-yl)methyl)-3H-imidazo[4,5-b]pyridine-5-carboxylic acid], 0.19 nM; with `CCOCCn1c(CN2CCC(Oc3ccnc(Cc4ccc(Cl)cc4)n3)CC2)nc2ccc(C(=O)O)nc21` [Compound 194, 2-((4-((2-(4-chlorobenzyl)pyrimidin-4-yl)oxy)piperidin-1-yl)methyl)-3-(2-ethoxyethyl)-3H-imidazo[4,5-b]pyridine-5-carboxylic acid], 2.9 nM.

Turning to `COC(C)Cn1c(CN2CCC(Oc3ccnc(Cc4ccc(Cl)cc4)n3)CC2)nc2ccc(C(=O)O)nc21` (stereo not drawn) [Compound 195, 2-((4-((2-(4-chlorobenzyl)pyrimidin-4-yl)oxy)piperidin-1-yl)methyl)-3-(2-methoxypropyl)-3H-imidazo[4,5-b]pyridine-5-carboxylic acid], the EC50 was 0.6 nM. As for `O=C(O)c1ccc2nc(CN3CCC(Oc4ccnc(Cc5ccc(Cl)cc5)n4)CC3)n(C[C@H]3CCOC3)c2n1` [Compound 196a, (R)-2-((4-((2-(4-chlorobenzyl)pyrimidin-4-yl)oxy)piperidin-1-yl)methyl)-3-((tetrahydrofuran-3-yl)methyl)-3H-imidazo[4,5-b]pyridine-5-carboxylic acid], the EC50 is 1.3 nM. Same read-out and setting: in the case of `O=C(O)c1ccc2nc(CN3CCC(Oc4nc(Cc5ccc(Cl)cc5)ncc4F)CC3)n(C[C@H]3CCOC3)c2n1` [Compound 197a, (R)-2-((4-((2-(4-chlorobenzyl)-5-fluoropyrimidin-4-yl)oxy)piperidin-1-yl)methyl)-3-((tetrahydrofuran-3-yl)methyl)-3H-imidazo[4,5-b]pyridine-5-carboxylic acid] it was 2.5 nM; in that of `O=c1[nH]c(-c2ccc3nc(CN4CCC(Oc5ccnc(Cc6ccc(Cl)cc6)n5)CC4)n(C[C@@H]4CCO4)c3n2)no1` [Compound 198a, (S)-3-(2-((4-((2-(4-chlorobenzyl)pyrimidin-4-yl)oxy)piperidin-1-yl)methyl)-3-(oxetan-2-ylmethyl)-3H-imidazo[4,5-b]pyridin-5-yl)-1,2,4-oxadiazol-5(4H)-one], 0.7 nM; in that of `Clc1ccc(Cc2nccc(OC3CCN(Cc4nc5ccc(-c6nnn[nH]6)nc5n4C[C@@H]4CCO4)CC3)n2)cc1` [Compound 199a, (S)-2-((4-((2-(4-chlorobenzyl)pyrimidin-4-yl)oxy)piperidin-1-yl)methyl)-3-(oxetan-2-ylmethyl)-5-(1H-tetrazol-5-yl)-3H-imidazo[4,5-b]pyridine], 0.95 nM. Turning to `NC(=O)c1ccc2nc(CN3CCC(Oc4ccnc(Cc5ccc(Cl)cc5)n4)CC3)n(C[C@@H]3CCO3)c2n1` [Compound 200a, (S)-2-((4-((2-(4-chlorobenzyl)pyrimidin-4-yl)oxy)piperidin-1-yl)methyl)-3-(oxetan-2-ylmethyl)-3H-imidazo[4,5-b]pyridine-5-carboxamide], the EC50 was determined as 85 nM. With `O=C(O)c1ccc2nc(CN3CC4CC(Oc5ccnc(Cc6ccc(Cl)cc6)n5)CC4C3)n(C[C@@H]3CCO3)c2n1` (stereo partly drawn) [Compound 201a, 2-{[5-({2-[(4-chlorophenyl)methyl]pyrimidin-4-yl}oxy)-octahydrocyclopenta[c]pyrrol-2-yl]methyl}-3-{[(2S)-oxetan-2-yl]methyl}-3H-imidazo[4,5-b]pyridine-5-carboxylic acid], the EC50 stood at 360 nM.

Still in this test, the particulars now being: HEK293/CRE-Luc cell line stably expressing the GLP-1 Receptor; 30 min incubation at 37° C.; read-out: GLP1R cAMP Stimulation DR: pEC50 (converted).
Regarding `O=C(O)c1ccc2nc(CN3CCC(Oc4cnn(Cc5ccc(Cl)cc5F)c4)CC3)n(C[C@@H]3CCO3)c2n1` [Compound 184a, 2-{[4-({1-[(4-chloro-2-fluorophenyl)methyl]-1H-pyrazol-4-yl}oxy)piperidin-1-yl]methyl}-3-{[(2S)-oxetan-2-yl]methyl}-3H-imidazo[4,5-b]pyridine-5-carboxylic acid], the EC50 was 100 nM. On the same count and under the same terms, with `Clc1ccc(Cc2nccc(OC3CCN(Cc4nc5ccc(-c6nnn[nH]6)nc5n4C[C@@H]4CCO4)CC3)n2)cc1` [Compound 199a, (S)-2-((4-((2-(4-chlorobenzyl)pyrimidin-4-yl)oxy)piperidin-1-yl)methyl)-3-(oxetan-2-ylmethyl)-5-(1H-tetrazol-5-yl)-3H-imidazo[4,5-b]pyridine] the figure was 1 nM.
